How the values were obtained:
Trypanosoma cruzi = assay: Antitrypanosomal activity against epimastigotes of Trypanosoma cruzi Y after 96 hrs by Neubauer haemocytometer; type: functional, organism-based
[1] = Selectivity index, ratio of CC50 for mouse J774.G8 cells to IC50 for epimastigotes of Trypanosoma cruzi Y; type: functional
[2] = Selectivity index, ratio of CC50 for monkey LLC-MK2 cells to IC50 for epimastigotes of Trypanosoma cruzi Y; type: functional

IC50 (Trypanosoma cruzi)	Compound	Selectivity Index [1]	Selectivity Index [2]
> 100 µM	COC(=O)[C@@H]1Cc2c([nH]c3ccccc23)[C@@H](c2ccc([N+](=O)[O-])cc2)N1 (relative stereo)	–	–
22.2 µM	COC(=O)[C@@H]1Cc2c([nH]c3ccccc23)[C@@H](c2cccc([N+](=O)[O-])c2)N1 (relative stereo)	35.7	25.6
93.5 µM	COC(=O)[C@@H]1Cc2c([nH]c3ccccc23)[C@H](c2cccc([N+](=O)[O-])c2)N1 (relative stereo)	–	–
42.7 µM	COC(=O)[C@@H]1Cc2c([nH]c3ccccc23)[C@H](c2ccc([N+](=O)[O-])cc2)N1 (relative stereo)	–	–

Reference: ChEMBL document CHEMBL1137678, “Comparative study of the trypanocidal activity of the methyl 1-nitrophenyl-1,2,3,4-9H-tetrahydro-beta-carboline-3-carboxylate derivatives and benznidazole using theoretical calculations and cyclic voltammetry” (Eur J Med Chem, 2009)
